Measurements as given in patent US8597646B2, “Methods and compositons featuring TGF-beta antagonists for the treatment of marfan syndrome and associated disorders” (The Johns Hopkins University, priority 2005, dated 2013).
“Also recorded” adds a separate entry of the source.

Assays:
Format in all cases: in vivo, mouse
C1039G/+ mice = assay: Aortic root growth by echocardiography in C1039G/+ mice, 4 months of treatment
Experimental: Markers of TGFβ antagonism have included reduced plasma levels of free TGFβ, reduced intracellular initiation of the TGFβ signaling cascade, and reduced tissue expression of TGFβ-responsive genes. […] Three independent measurements of the aortic root were made from the long axis echo view in systole at each of 3 time points (baseline, 2 and 4 months of treatment; FIG. 8A). All analyses were performed blinded to genotype and treatment arm. […] This represents the first therapeutic strategy for MFS that derives from interrogation of disease pathogenesis and the first possibility for primary prevention of disease manifestations.

Fbn1C1039G/+ mice [1] = assay: Postnatal treatment with losartan and propranolol, aorta of Fbn1C1039G/+ mice; conditions: for Aortic root growth rate: during 6 months of treatment
Source text: However, before treatment, the aortic diameter in Fbn1C1039G/+ mice was always greater than in untreated wild-type mice (1.59±0.11 mm; P<0.002).
Three independent aortic root measurements were obtained for each mouse every 2 months during the 6 months of treatment. Mice were killed at 8 months of age. […] The aortic root growth rate over this period was less in the wild-type mice than in the placebo-treated Fbn1C1039G/+ mice (P<0.0001, FIG. 21I).

Fbn1C1039G/+ mice [2] = assay: Steady-state skeletal muscle architecture and fiber cross sectional area in Fbn1C1039G/+ mice; conditions: for Steady-state muscle architecture, in words: fibrillin-1 deficient mice, monopotassium salt
Experimental: Wild-type and Fbn1^C1039G/+ mice received intraperitoneal injections of TGFβ-neutralizing antibody (R&D Systems, once every two weeks) starting at 7 weeks of age. The antibody was diluted in PBS (pH 7.4) and administered at a dose of 1 mg/kg or 10 mg/kg body weight. Rabbit IgG (10 mg/kg; Zymed Laboratories Inc.) was administered in a similar fashion as a negative control. Mice were sacrificed after 2 months of treatment and a minimum of 6 mice per genotype were used for histologic and morphometric analyses.
Mice were continued on oral therapy for 6 months and sacrificed. […] Age-matched wild-type and mdx mice (placebo-treated) served as a control group. After 6 months of treatment, forelimb and hindlimb grip strength was assessed using an automated grip strength meter (Columbus Instruments, Columbus, Ohio). The experiments for forelimb and hindlimb grip strength testing were conducted at different days allowing for a minimum recovery period of 10 days. Total peak force (in Newtons) was determined by an electronic strain gauge as previously described and corrected for body weight (Wagner, K. R., et al. (2002) Ann Neurol 52, 832-6). Five measurements within 2 minutes were taken from each animal. […] The degree of fatigue was calculated by comparing the first two pulls to the last two pulls with the decrement between pulls 1+2 and pulls 4+5 providing a measure of fatigue. […]
For morphometric analyses, skeletal muscle was flash frozen in cooled isopentane and mounted in Tragacanth (Sigma Aldrich, USA). […] Muscle fibers were counted in a defined area (9 mm^2) of the tibialis anterior muscle of 10-day-old wild-type (n=3) and Fbn1C1039G/C1039G mice (n=6) and fiber diameter was determined by measuring the shortest fiber axis within cross-sections of the tibialis anterior muscle, counting a total of 850-1500 fibers. The cross sectional area of undamaged and regenerating myofibers of the tibialis anterior muscle from wild-type and Fbn1^C1039G/+ mice was expressed as a distribution of the percentage of the total number of myofibers analyzed (850-1500) (Horsley, V. et al (2003) Cell 113, 483-94). […]

Fbn1C1039G/+ mice [3] = assay: Prenatal treatment with losartan and propranolol, aorta of Fbn1C1039G/+ mice; conditions: prenatal start
Source text: Treatment of the mothers continued throughout lactation and was maintained in the pups after weaning. Mice were killed at 10 months of age. […] The average aortic wall thickness for untreated wild-type animals was smaller than that in placebo-treated Fbn1C1039G/+ mice (P<0.0001) but was indistinguishable from that in losartan-treated Fbn1C1039G/+ mice (P=0.24, FIG. 20E).

mdx mice = assay: Forelimb and hindlimb grip strength and fatigue in mdx mice
Experimental: Mice were continued on oral therapy for 6 months and sacrificed. […] Age-matched wild-type and mdx mice (placebo-treated) served as a control group. After 6 months of treatment, forelimb and hindlimb grip strength was assessed using an automated grip strength meter (Columbus Instruments, Columbus, Ohio). The experiments for forelimb and hindlimb grip strength testing were conducted at different days allowing for a minimum recovery period of 10 days. Total peak force (in Newtons) was determined by an electronic strain gauge as previously described and corrected for body weight (Wagner, K. R., et al. (2002) Ann Neurol 52, 832-6). Five measurements within 2 minutes were taken from each animal. The three highest measurements for each animal were averaged to give the strength score. The degree of fatigue was calculated by comparing the first two pulls to the last two pulls with the decrement between pulls 1+2 and pulls 4+5 providing a measure of fatigue. Similarly, functional measurements were performed in 6 month old fibrillin-1 deficient mice (Fbn1^mgR) (Pereira, L. et al. (1997) Nat Genet. 17, 218-22) after 5 months of treatment.

[4] = 6 months of treatment, monopotassium salt
[5] = 10 months of treatment, monopotassium salt

Structure (SMILES): CCCCc1nc(Cl)c(CO)n1Cc1ccc(-c2ccccc2-c2nnn[nH]2)cc1.[K] [losartan, 2-butyl-4-chloro-1-[p-(o-1H-tetrazol-5-ylphenyl)benzyl]imidazole-5-methanol monopotassium salt]
- Aortic growth during the 4 months of treatment (C1039G/+ mice; C1039G/+ mice from 7 weeks of age, losartan 50 mg/kg or propranolol 40 mg/kg, aortic root, echo, placebo 0.44±0.09): 0.03±0.07 mm
- Aortic growth / protection, in words (C1039G/+ mice; C1039G/+ mice, compared with wild-type or with losartan): indistinguishable from that seen in wild-type mice
- Aortic wall / elastic fiber architecture (Fbn1C1039G/+ mice [1]; [4]): full normalization relative to wild-type mice
- Aortic wall thickness (Fbn1C1039G/+ mice [1]; [4]): full normalization relative to wild-type mice; also recorded: indistinguishable from that seen in wild-type mice
- Aortic root growth rate (Fbn1C1039G/+ mice [1]; listed as Losartan, monopotassium salt): normalizes growth rate
- Aortic root growth rate (Fbn1C1039G/+ mice [1]; monopotassium salt): indistinguishable from that in the wild-type group
- Elastic fiber fragmentation (VVG staining) (Fbn1C1039G/+ mice [1]; from 7 weeks of age, 6 months, drinking water, monopotassium salt): prevented elastic fiber fragmentation; also recorded: Elastic lamellae are intact
- TGF-β signaling in aortic media (nuclear pSmad2) (Fbn1C1039G/+ mice [1]; from 7 weeks of age, 6 months, monopotassium salt): blunted TGF-β signaling; also recorded: Nuclear pSmad2 staining is decreased
- Absolute diameter of the aortic root at the end of treatment (Fbn1C1039G/+ mice [1]; versus untreated wild-type littermates): similar
- Steady-state muscle architecture, in words (Fbn1C1039G/+ mice [2]; listed as Losartan): rescued; also recorded: normalized
- Steady-state muscle architecture, in words (Fbn1C1039G/+ mice [2]): fully normalized
- Mean fiber size (muscle fiber cross sectional area) (Fbn1C1039G/+ mice [2]; steady state, postnatal losartan, untreated 1746±39, wild-type 2741±69): 2527±58 μm^2
- Aortic dilatation (Fbn1C1039G/+ mice [3]; 10 months): indistinguishable from wild-type littermates
- Aortic wall architecture score (Fbn1C1039G/+ mice [3]; [5]): normalized; also recorded: improvement
- Average aortic wall thickness (Fbn1C1039G/+ mice [3]; [5]): indistinguishable; also recorded: full normalization of wall thickness
- Forelimb grip strength (peak force), male (mdx mice; 6 months of losartan, untreated mdx 1.25±0.15): 1.64±0.29 N
- Forelimb grip strength (peak force), female (mdx mice; 6 months of losartan, untreated mdx 1.32±0.12): 1.41±0.15 N
- Hindlimb grip strength (peak force), female (mdx mice; 6 months of losartan, untreated mdx 1.39±0.14): 1.79±0.14 N
- Hindlimb grip strength (peak force), male (mdx mice; 6 months of losartan, untreated mdx 1.45±0.19): 1.89±0.23 N
- Muscle fatigue, forelimb test, female (mdx mice; 6 months of losartan, untreated mdx 34.7±5.7): 15.2±6%
- Muscle fatigue, forelimb test, male (mdx mice; 6 months of losartan, untreated mdx 36.3±6.5): 16.3±5%
- Muscle fatigue, hindlimb test, female (mdx mice; 6 months of losartan, untreated mdx 37.6±6): 17.1±4%
- Muscle fatigue, hindlimb test, male (mdx mice; 6 months of losartan, untreated mdx 39.5±6): 16.2%±5
- Muscle fatigue in response to repetitive challenge, in words (mdx mice; 6 months of treatment): significantly less muscle fatigue
- Grip strength versus untreated mdx mice, in words (mdx mice; 6 months of treatment, male and female): increased forelimb and hindlimb grip strength
